How the values were obtained:
[1] = biological target: Nischarin (Rattus norvegicus, UniProt Q4G017); test: Inhibition of Sprague-Dawley rat imidazoline I1 receptor
[2] = biological target: T1, Adrenergic receptor alpha-2 (Rattus norvegicus, UniProt P22086+P19328+P22909); test: Inhibition of Sprague-Dawley rat alpha-2 adrenergic receptor
T1 sequence (P22086 whole entry): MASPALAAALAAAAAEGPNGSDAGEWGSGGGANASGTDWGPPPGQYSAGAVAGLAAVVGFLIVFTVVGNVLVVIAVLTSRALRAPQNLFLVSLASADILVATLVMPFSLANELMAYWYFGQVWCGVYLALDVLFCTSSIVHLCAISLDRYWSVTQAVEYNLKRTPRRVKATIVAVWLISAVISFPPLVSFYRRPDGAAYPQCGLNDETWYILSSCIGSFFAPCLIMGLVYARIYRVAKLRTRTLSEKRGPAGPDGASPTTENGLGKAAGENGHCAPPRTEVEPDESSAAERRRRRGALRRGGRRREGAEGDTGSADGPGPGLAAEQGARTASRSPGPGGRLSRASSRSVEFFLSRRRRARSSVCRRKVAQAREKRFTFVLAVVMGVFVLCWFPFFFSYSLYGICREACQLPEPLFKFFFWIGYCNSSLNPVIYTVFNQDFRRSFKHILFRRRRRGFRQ
T1 sequence (P19328 whole entry): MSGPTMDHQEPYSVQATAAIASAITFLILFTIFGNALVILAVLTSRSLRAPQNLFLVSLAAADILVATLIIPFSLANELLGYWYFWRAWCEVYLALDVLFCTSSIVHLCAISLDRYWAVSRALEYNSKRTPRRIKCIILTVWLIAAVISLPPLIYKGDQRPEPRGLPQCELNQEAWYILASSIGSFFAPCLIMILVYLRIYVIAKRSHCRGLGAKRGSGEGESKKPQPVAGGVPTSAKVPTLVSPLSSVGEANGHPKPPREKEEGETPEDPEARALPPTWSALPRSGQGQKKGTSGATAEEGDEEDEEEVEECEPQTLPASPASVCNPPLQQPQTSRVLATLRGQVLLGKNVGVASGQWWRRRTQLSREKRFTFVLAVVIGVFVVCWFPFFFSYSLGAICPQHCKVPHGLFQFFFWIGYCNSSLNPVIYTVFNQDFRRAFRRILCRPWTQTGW
T1 sequence (P22909 whole entry): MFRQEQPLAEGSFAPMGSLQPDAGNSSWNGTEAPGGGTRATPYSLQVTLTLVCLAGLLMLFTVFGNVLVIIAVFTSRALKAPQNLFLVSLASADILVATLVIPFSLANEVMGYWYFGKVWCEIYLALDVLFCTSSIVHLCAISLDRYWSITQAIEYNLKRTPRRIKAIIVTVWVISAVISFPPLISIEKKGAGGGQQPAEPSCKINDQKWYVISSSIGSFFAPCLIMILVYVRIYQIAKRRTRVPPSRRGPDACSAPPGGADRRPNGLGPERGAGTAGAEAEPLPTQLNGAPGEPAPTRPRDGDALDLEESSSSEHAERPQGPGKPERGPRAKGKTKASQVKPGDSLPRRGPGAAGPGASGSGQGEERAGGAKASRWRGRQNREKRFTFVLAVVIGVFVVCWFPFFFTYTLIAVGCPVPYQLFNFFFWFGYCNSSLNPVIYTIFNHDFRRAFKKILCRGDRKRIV

[3] = Inhibition of Sprague-Dawley rat imidazoline I2 receptor
[4] = Inhibition of Wistar rat imidazoline I2 receptor

Sequence of Nischarin (Q4G017 whole entry): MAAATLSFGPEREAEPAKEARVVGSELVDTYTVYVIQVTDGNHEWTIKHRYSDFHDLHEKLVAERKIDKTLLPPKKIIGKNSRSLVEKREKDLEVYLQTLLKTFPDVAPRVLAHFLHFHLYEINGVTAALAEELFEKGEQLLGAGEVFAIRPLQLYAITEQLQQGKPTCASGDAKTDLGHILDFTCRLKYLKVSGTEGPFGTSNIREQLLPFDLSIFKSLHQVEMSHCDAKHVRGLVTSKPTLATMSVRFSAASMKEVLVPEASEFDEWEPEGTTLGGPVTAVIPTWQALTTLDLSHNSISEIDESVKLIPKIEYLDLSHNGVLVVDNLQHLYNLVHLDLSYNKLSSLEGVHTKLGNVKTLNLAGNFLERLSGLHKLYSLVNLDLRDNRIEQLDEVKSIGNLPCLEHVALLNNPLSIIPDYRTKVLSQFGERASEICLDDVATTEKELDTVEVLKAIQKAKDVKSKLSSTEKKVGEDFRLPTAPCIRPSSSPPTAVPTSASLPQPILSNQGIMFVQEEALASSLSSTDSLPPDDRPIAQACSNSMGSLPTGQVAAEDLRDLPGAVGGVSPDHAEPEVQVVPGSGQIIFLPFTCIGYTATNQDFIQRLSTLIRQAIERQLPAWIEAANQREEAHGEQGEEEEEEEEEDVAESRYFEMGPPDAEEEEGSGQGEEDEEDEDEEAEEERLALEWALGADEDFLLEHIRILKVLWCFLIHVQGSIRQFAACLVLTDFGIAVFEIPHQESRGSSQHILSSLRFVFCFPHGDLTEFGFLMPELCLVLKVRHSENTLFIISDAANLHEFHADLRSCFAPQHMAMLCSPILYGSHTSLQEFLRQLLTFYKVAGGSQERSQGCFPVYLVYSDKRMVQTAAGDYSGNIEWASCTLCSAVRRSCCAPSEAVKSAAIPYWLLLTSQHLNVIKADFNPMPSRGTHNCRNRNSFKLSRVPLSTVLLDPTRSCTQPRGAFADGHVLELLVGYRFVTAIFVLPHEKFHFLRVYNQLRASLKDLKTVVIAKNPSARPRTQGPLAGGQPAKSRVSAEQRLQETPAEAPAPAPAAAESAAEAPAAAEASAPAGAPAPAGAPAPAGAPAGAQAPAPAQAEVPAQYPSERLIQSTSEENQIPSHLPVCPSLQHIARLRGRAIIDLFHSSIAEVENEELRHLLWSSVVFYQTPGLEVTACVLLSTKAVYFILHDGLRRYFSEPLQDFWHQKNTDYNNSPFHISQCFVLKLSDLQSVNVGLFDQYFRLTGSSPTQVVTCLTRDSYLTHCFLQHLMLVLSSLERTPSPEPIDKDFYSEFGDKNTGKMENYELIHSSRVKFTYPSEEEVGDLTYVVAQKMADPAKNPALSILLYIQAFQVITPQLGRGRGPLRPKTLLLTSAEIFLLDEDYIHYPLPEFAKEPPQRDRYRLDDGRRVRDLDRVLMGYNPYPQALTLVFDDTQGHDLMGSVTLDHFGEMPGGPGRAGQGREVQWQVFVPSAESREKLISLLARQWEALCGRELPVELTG

SMILES | IC50 [1] | Ki [2] | Ki [3] | Ki [4]
Br.NCC[C@H]1CNC(Nc2cccnc2)=N1 | > 1000 µM | 19.66 µM | > 1000 µM | –
Br.NCC[C@H]1CNC(NCc2ccccc2)=N1 | 101 µM | 5.539 µM | 7.5 µM | –
Br.NCC[C@H]1CNC(Nc2ccc(Cl)cc2Cl)=N1 | 1.48 µM | 0.854 µM | 1.76 µM | –
Br.Cc1cccc(NC2=N[C@H](CCN)CN2)n1 | 8.51 µM | 4.907 µM | 39.6 µM | –
Br.NCC[C@H]1CNC(Nc2ccccc2Br)=N1 | 3.7 µM | 1.553 µM | 18.8 µM | –
Br.NCC[C@H]1CNC(Nc2c(F)cccc2F)=N1 | 93.1 µM | 13.06 µM | 21.8 µM | –
Br.NCC[C@H]1CNC(Nc2ccc(Br)cc2)=N1 | 59.4 µM | 25.8 µM | 81.2 µM | –
Br.COc1ccc(NC2=N[C@@H](CCN)CN2)cc1 | 79.8 µM | 9.376 µM | 24.9 µM | –
Br.NCC[C@H]1CNC(Nc2cccc(Cl)c2)=N1 | 33.9 µM | 7.018 µM | 20.3 µM | –
Br.Cc1cccc(NC2=N[C@@H](CCN)CN2)n1 | 7.78 µM | 0.445 µM | 15.7 µM | –
Br.NCC[C@@H]1CNC(Nc2ccc(Cl)cc2Cl)=N1 | 6.33 µM | 16.92 µM | 92.5 µM | –
Br.NCC[C@H]1CNC(Nc2cccc(C(F)(F)F)c2)=N1 | 1.31 µM | 3.007 µM | 12.7 µM | –
Br.NCC[C@@H]1CNC(Nc2cccc(C(F)(F)F)c2)=N1 | 1.25 µM | 26.69 µM | 47.7 µM | –
Br.NCC[C@H]1CNC(Nc2c(Cl)cccc2Cl)=N1 | 7.75 µM | 1.899 µM | 2.43 µM | –
Br.NCC[C@@H]1CNC(Nc2c(Cl)cccc2Cl)=N1 | 2.72 µM | 4.315 µM | 9.56 µM | –
Br.NCC[C@H]1CNC(Cc2ccccc2)=N1 | 278 µM | 23.32 µM | 59.4 µM | –
Br.NCC[C@H]1CNC(Cc2cccc3ccccc23)=N1 | > 100 µM | 0.964 µM | 1 µM | –
Br.NCC[C@@H]1CNC(Cc2cccc3ccccc23)=N1 | 583 µM | 83.77 µM | 46.3 µM | –
Br.CCC1(C2=N[C@@H](CCN)CN2)Cc2ccccc2O1 (stereo partly drawn) | 1.01 µM | 20.35 µM | 2.55 µM | –
Br.CCC1(C2=N[C@H](CCN)CN2)Cc2ccccc2O1 (stereo partly drawn) | 32.5 µM | 0.869 µM | 18.9 µM | –
Br.NCC[C@H]1CNC(C2COc3ccccc3O2)=N1 (stereo partly drawn) | 5.11 µM | 24.02 µM | 8.12 µM | –
Br.NCC[C@@H]1CNC(C2COc3ccccc3O2)=N1 (stereo partly drawn) | 2.65 µM | 5.412 µM | 9.61 µM | –
Br.NCC[C@H]1CNC(CN(Cc2ccccc2)c2ccccc2)=N1 | 11.6 µM | 481.8 µM | 19.1 µM | –
Br.NCC[C@H]1CNC(c2ccccc2)=N1 | 72.9 µM | 43.07 µM | 3.56 µM | –
Br.NCC[C@H]1CNC(c2ccccc2F)=N1 | 117 µM | 178.6 µM | 27.6 µM | –
Br.NCC[C@H]1CNC(/C=C/c2ccccc2)=N1 | 17.2 µM | 3.896 µM | 11.2 µM | –
Cl.Cl.NCC[C@H]1CNC(NC(C2CC2)C2CC2)=N1 | > 100 µM | 5.727 µM | 28 µM | –
NCCCCN=C(N)N [AGMATINE] | – | – | – | 417 µM
Clc1cccc(Cl)c1NC1=NCCN1 [CLONIDINE] | – | – | 0.364 µM | –
